Reference: ChEMBL document CHEMBL1201862, “PubChem BioAssay data set” (2004)
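Interpolation was linear, between the two tested concentrations surrounding the appropriate level; five concentrations were tested over 48 hours in 96-well plates. Abbreviation: GI50, concentration required for 50% inhibition of growth.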 The source made the active and inactive calls. Cut-off read from the data, not from the text of the source: active = GI50 up to about 1.1 µM and inactive = higher.

Experiments:
Assay in all cases: inhibition of tumour cell growth, NCI panel, 48 h
[1] = tested on: PC-3
[2] = tested on: SNB-19
[3] = tested on: OVCAR-5
[4] = tested on: EKVX
[5] = tested on: UACC-257
[6] = tested on: HCC 2998
[7] = tested on: NCI-H522
[8] = tested on: OVCAR-3
[9] = tested on: SR
[10] = tested on: SF-268
[11] = tested on: SK-OV-3
[12] = tested on: RPMI-8226
[13] = tested on: T47D
[14] = tested on: CAKI-1
[15] = tested on: SW-620
[16] = tested on: K562
[17] = tested on: HT-29
[18] = tested on: HOP-92
[19] = tested on: OVCAR-8
[20] = tested on: DU-145

Measured: GI50

Cn1c(N=[N+]=[N-])cc(=O)n(C)c1=O
inactive: [1] > 100 µM | [2] > 100 µM | [3] > 100 µM | [4] > 100 µM | [5] > 100 µM | [6] > 100 µM | [7] > 100 µM | [8] > 100 µM | [9] > 100 µM | [10] > 100 µM | [11] > 100 µM | [12] > 100 µM | [13] > 100 µM | [14] > 100 µM | [15] > 100 µM | [16] > 100 µM | [17] > 100 µM | [18] > 100 µM | [19] > 100 µM

CC(C)=NN/C(=N\c1ccc(Cl)cc1)NS(=O)(=O)c1cc(Cl)c(Oc2ccc([N+](=O)[O-])cc2Cl)c(Cl)c1
inactive: [1] 87.9 µM | [2] > 100 µM | [3] > 100 µM | [4] 29.4 µM | [5] > 100 µM | [20] > 100 µM | [7] 91 µM | [8] > 100 µM | [10] > 100 µM | [12] 29.6 µM | [13] 22.2 µM | [14] > 100 µM | [15] > 100 µM | [16] 53.6 µM | [17] > 100 µM | [18] 51.8 µM | [19] > 100 µM

COC(=O)/C=C1/OC(c2ccccc2)=C(C)C1=O
inactive: [2] 16.4 µM | [3] 16 µM | [4] 17.9 µM | [6] 16.6 µM | [20] 19.3 µM | [7] 12.6 µM | [8] 20 µM | [9] 2.61 µM | [10] 17.9 µM | [11] 10.7 µM | [12] 2.19 µM | [13] 20.1 µM | [14] 4.05 µM | [15] 2.4 µM | [16] 3.2 µM | [17] 1.98 µM | [18] 13.2 µM | [19] 6.08 µM

CNc1cc(OCc2ccccc2)c(OC)cc1C(=O)N1CCC[C@H]1CO
inactive: [1] > 100 µM | [2] > 100 µM | [3] > 100 µM | [4] > 100 µM | [5] > 100 µM | [20] > 100 µM | [7] 73.8 µM | [10] > 100 µM | [11] > 100 µM | [13] > 100 µM | [14] > 100 µM | [15] > 100 µM | [17] > 100 µM | [19] > 100 µM

CC(C)[C@H](C)/C=C/[C@@H](C)C1CC[C@H]2[C@@]34C=C[C@]5(C[C@@H](O)CC[C@]5(C)[C@H]3CC[C@]12C)OO4 (stereo not given in full)
inactive: [2] 27.9 µM | [3] > 100 µM | [4] 39.3 µM | [5] > 100 µM | [6] 21.9 µM | [20] 23.1 µM | [8] 89.5 µM | [10] 29.7 µM | [11] 54.8 µM | [13] 20.8 µM | [14] 22.5 µM | [15] 27.1 µM | [17] 23.3 µM | [18] 32.4 µM | [19] 20.8 µM

O=c1cc(NNc2cccc(F)c2)[nH]c(=S)[nH]1
inactive: [1] > 100 µM | [2] > 100 µM | [3] > 100 µM | [4] > 100 µM | [5] > 100 µM | [6] 63.4 µM | [20] > 100 µM | [8] 26.9 µM | [9] > 100 µM | [10] 1.97 µM | [12] 42.4 µM | [15] > 100 µM | [16] 61.4 µM | [17] > 100 µM | [18] 19.2 µM | [19] > 100 µM

CC1=NNC(=O)C1C(CC(=O)c1c[nH]c2ccccc12)C(=O)O (stereo not given)
inactive: [1] > 100 µM | [2] > 100 µM | [3] > 100 µM | [4] > 100 µM | [5] > 100 µM | [20] > 100 µM | [7] 72.1 µM | [8] > 100 µM | [10] > 100 µM | [11] > 100 µM | [12] 35.1 µM | [13] 76 µM | [14] > 100 µM | [15] > 100 µM | [16] 36.1 µM | [17] > 100 µM | [18] > 100 µM | [19] > 100 µM

COc1ccc(N[S+]([O-])c2c(C)cc(C)cc2C)cc1 (stereo not given)
inactive: [2] > 100 µM | [3] > 100 µM | [4] 43.8 µM | [5] 70.1 µM | [6] 19.5 µM | [20] 93.3 µM | [7] 19.1 µM | [8] 61.9 µM | [9] 35.7 µM | [10] 21.6 µM | [12] 45.3 µM | [13] 34 µM | [15] 48.2 µM | [16] 42.1 µM | [17] 46.1 µM | [19] 72.1 µM

N#Cc1c(-c2ccccc2)[nH]c2ccccc2c1=O
inactive: [1] > 100 µM | [2] 22.8 µM | [3] > 100 µM | [4] > 100 µM | [5] > 100 µM | [6] > 10 µM | [20] > 100 µM | [8] 83.6 µM | [9] > 100 µM | [10] 35 µM | [11] 26.2 µM | [14] > 100 µM | [15] 91 µM | [16] 59.4 µM | [17] > 100 µM | [18] > 100 µM | [19] 97.9 µM

CN(C)/C=N/c1c2ccccc2nc2ccccc12
inactive: [1] 2.98 µM | [2] 4.25 µM | [3] 6.52 µM | [4] 9.46 µM | [5] 2.3 µM | [20] 4.83 µM | [7] 2.01 µM | [8] 3.05 µM | [10] 3.35 µM | [11] 5.64 µM | [12] 1.79 µM | [13] 2.65 µM | [14] 18 µM | [16] 4.47 µM | [17] 3.06 µM | [18] 5.4 µM | [19] 3.92 µM

O=C(NC1=NC2C=CC([N+](=O)[O-])=CC2S1)C(=O)Nn1c(S)nc2ccccc2c1=O (stereo not given)
inactive: [1] 40.6 µM | [2] 24.3 µM | [3] > 100 µM | [4] 33.7 µM | [5] > 100 µM | [6] > 100 µM | [7] 47.3 µM | [8] > 100 µM | [10] 99.3 µM | [11] 63 µM | [12] 50.6 µM | [13] 80.5 µM | [14] 40.4 µM | [15] > 100 µM | [16] 64.1 µM | [17] > 100 µM | [18] 29.4 µM | [19] 87.1 µM
